From BindingDB's records for doi:10.1111/cbdd.12481 (University of Kwazulu-Nata, 2015)

How the values were obtained:
[1] = molecular target: 72 kDa type IV collagenase (Homo sapiens, UniProt P08253); assay: MMP2 Inhibition Assay; details: pH 8.5; 25 °C
Procedure: The synthesized compounds were assayed for the inhibitory activities against MMP-2 in 96-well microtiter plates using succinylated gelatin as the substrate. The compound and enzyme were dissolved in sodium borate buffer (pH 8.5, 50 mM) and incubated at 37 °C for 30 min. The substrate was added and incubated at 37 °C for another 60 min. The 100% and blank groups were also carried out, in which the 100% group contained not compound and the blank group contained […]. Then, 0.03% picrylsulfonic acid solution was added and incubated at room temperature for additional 20 min. The resulting solutions were measured under 450 nm.

[2] = molecular target: Macrophage metalloelastase (Homo sapiens, UniProt P39900); assay: MMP12 Inhibition Assay; details: pH 8; 25 °C
Procedure: The synthesized compounds were assayed for the inhibitory activities against MMP-12 in 96-well microtiter plates using thiopeptolide as the substrate. MMP-12 was diluted in Assay buffer (50 mM Tris pH7.5, 0.05% Brij-35, 10 mM CaCl2, 1 mM DTNB) to a concentration of 0.007 U/µL. The MMP-12 solution (44 µL) was premixed with 1 µL of inhibitors dissolved in DMSO in a 96-well plate, and the mixture was incubated for 20 min at room temperature. Then, 5 µL of 1 mM MMP chromogenic substrate (thiopeptolide) was added to the mixture, and the reaction mixture was incubated for 30-80 min at 37 °C. Reaction was terminated by adding 7 µL of 0.2 M EDTA (pH 8.0). The intensity of the color developed by the digested substrate was measuredat 405 nm.

Chain of Macrophage metalloelastase (P39900 whole entry): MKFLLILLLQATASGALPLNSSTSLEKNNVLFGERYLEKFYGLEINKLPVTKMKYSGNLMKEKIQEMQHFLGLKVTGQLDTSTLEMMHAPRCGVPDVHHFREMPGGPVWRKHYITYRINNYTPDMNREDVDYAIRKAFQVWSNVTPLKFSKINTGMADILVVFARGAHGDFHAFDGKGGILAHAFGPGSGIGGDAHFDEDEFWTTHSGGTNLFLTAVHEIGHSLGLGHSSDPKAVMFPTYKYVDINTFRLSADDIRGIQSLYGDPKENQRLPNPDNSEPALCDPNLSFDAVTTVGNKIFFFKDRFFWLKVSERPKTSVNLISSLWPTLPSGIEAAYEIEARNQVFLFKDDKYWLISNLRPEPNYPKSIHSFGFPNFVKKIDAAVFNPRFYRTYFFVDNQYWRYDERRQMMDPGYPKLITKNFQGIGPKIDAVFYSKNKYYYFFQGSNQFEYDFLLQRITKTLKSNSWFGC
Chain of 72 kDa type IV collagenase (P08253 whole entry): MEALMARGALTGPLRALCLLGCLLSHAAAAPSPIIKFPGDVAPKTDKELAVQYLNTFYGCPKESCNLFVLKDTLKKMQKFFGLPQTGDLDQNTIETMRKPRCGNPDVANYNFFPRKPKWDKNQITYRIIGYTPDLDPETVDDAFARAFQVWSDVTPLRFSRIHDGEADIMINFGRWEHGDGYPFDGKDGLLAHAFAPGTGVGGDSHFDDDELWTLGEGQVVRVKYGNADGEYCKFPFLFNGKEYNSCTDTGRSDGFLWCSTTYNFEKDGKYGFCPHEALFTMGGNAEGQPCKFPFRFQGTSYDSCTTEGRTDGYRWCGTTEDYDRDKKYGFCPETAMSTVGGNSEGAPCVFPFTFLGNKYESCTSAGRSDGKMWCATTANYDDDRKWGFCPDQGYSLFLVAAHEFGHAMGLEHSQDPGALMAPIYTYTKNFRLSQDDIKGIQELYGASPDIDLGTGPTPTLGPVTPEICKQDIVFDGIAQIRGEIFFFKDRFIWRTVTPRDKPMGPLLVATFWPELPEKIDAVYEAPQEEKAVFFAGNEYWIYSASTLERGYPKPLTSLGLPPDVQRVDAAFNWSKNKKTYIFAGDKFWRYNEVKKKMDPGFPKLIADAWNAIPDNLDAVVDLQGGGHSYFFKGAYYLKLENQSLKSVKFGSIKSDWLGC

O=C(NNC(=S)Nc1ccc(Cl)cc1)c1cc(Br)c(Br)[nH]1 [2-(4,5-Dibromo-1H-pyrrole-2-carbonyl)-N-(4-chlorophenyl)hydrazine carbothioamide (5e)]
IC50 [1]: 1.8 µM
IC50 [2]: 29 µM

Cn1c(C(=O)NNC(=O)Nc2ccco2)cc(Br)c1Br [2-(1-Methyl-4,5-dibromo-1H-pyrrole-2-carbonyl-N-(furan-2-yl))hydrazine carboxamide (4s)]
IC50 [1]: 60.3 µM
IC50 [2]: 84.2 µM

COc1cc(NC(=S)NNC(=O)c2cc(Br)c(Br)n2C)cc(OC)c1OC [2-(1-Methyl-4,5-dibromo-1H-pyrrole-2-carbonyl)-N-(3,4,5-trimethoxyphenyl) hydrazine carbothioamide (5t)]
IC50 [1]: 19.2 µM
IC50 [2]: 23.8 µM

O=C(NNC(=S)Nc1ccc([N+](=O)[O-])cc1)c1cc(Br)c(Br)[nH]1 [2-(4,5-Dibromo-1H-pyrrole-2-carbonyl)-N-(4-nitrophenyl)hydrazine carbothioamide (5c)]
IC50 [1]: 13.7 µM
IC50 [2]: 42.1 µM

Cn1c(C(=O)NNC(=S)Nc2ccccc2F)cc(Br)c1Br [2-(1-Methyl-4,5-dibromo-1H-pyrrole-2-carbonyl)-N-(2-fluorophenyl)hydrazine carbothioamide (5n)]
IC50 [1]: 8 µM
IC50 [2]: 43.1 µM
